Reference: US4987129A, “Cephalosporin derivatives” (priority 1987, dated 1991)
Converted amounts (≈) assume the structure as drawn. Counter-ions that a name gives are not always drawn. Like-named read-outs stand apart in the source and are kept apart here.

Columns and labels:
Format in all cases: cell-based
[1] = tested on: Staphylococcus aureus Smith; test: minimum inhibitory concentration (MIC), standard method of Japan Society of Chemotherapy; conditions: Tables 2A, 2B
Protocol: (§1) The minimum inhibitory concentration (MIC) of the compounds obtained in the above Examples were measured according to the standard method of Japan Society of Chemotherapy.

[2] = tested on: Citrobacter freundii GN7391; test: minimum inhibitory concentration (MIC)
Protocol: as §1

[3] = tested on: Enterobacter cloacae 908RN; test: minimum inhibitory concentration (MIC)
Protocol: as §1

[4] = tested on: Enterobacter cloacae GN7471; test: minimum inhibitory concentration (MIC)
Protocol: as §1

[5] = tested on: Escherichia coli GN5482; test: minimum inhibitory concentration (MIC); conditions: Tables 2A, 2B
Protocol: as §1

[6] = tested on: Escherichia coli ML4704; test: minimum inhibitory concentration (MIC)
Protocol: as §1

[7] = tested on: Klebsiella pneumoniae 4at521; test: minimum inhibitory concentration (MIC); conditions: Tables 2A, 2B
Protocol: as §1

[8] = tested on: Proteus vulgris GN7919; test: minimum inhibitory concentration (MIC)
Protocol: as §1

[9] = tested on: Pseudomonas aeruginosa 4au542; test: minimum inhibitory concentration (MIC); conditions: Tables 2A, 2B
Protocol: as §1

[10] = tested on: Pseudomonas aeruginosa 5D58-1; test: minimum inhibitory concentration (MIC); conditions: 5D581, Tables 2A, 2B
Protocol: as §1

[11] = tested on: Pseudomonas aeruginosa GN10362; test: minimum inhibitory concentration (MIC); conditions: Tables 2A, 2B
Protocol: as §1

[12] = tested on: Pseudomonas cepacia OF189; test: minimum inhibitory concentration (MIC); conditions: Burkholderia cepacia, Tables 2A, 2B
Protocol: as §1

[13] = tested on: Pseudomonas maltophilia OF247; test: minimum inhibitory concentration (MIC); conditions: Stenotrophomonas maltophilia, Tables 2A, 2B
Protocol: as §1

[14] = tested on: Serratia marcescens GN10857; test: minimum inhibitory concentration (MIC); conditions: Tables 2A, 2B
Protocol: as §1

[15] = tested on: Staphylococcus aureus IAA498; test: minimum inhibitory concentration (MIC); conditions: Tables 2A, 2B
Protocol: as §1

[16] = Citrobacter freundii GN7391, Tables 2A, 2B, read-out: MIC
[17] = Enterobacter cloacae GN7471, Tables 2A, 2B, read-out: MIC
[18] = Escherichia coli ML4704, Tables 2A, 2B, read-out: MIC
[19] = Proteus vulgris GN7919, Tables 2A, 2B, read-out: MIC
[20] = Enterobacter cloacae 908RN, Tables 2A, 2B

| SMILES | MIC [1] [µg/mL] | MIC ([2]; Citrobacter freundii, GN7391) [µg/mL] | MIC [3] [µg/mL] | MIC ([4]; Enterobacter cloacae, GN7471) [µg/mL] | MIC [5] [µg/mL] | MIC ([6]; Escherichia coli, ML4704) [µg/mL] | MIC [7] [µg/mL] | MIC [8] [µg/mL] | MIC [9] [µg/mL] | MIC [10] [µg/mL] | MIC [11] [µg/mL] | MIC [12] [µg/mL] | MIC [13] [µg/mL] | MIC [14] [µg/mL] | MIC [15] [µg/mL] | MIC [2, 16] [µg/mL] | MIC [4, 17] [µg/mL] | MIC [6, 18] [µg/mL] | MIC [8, 19] [µg/mL] | MIC [3, 20] [µg/mL] | other results |
| --- | --- | --- | --- | --- | --- | --- | --- | --- | --- | --- | --- | --- | --- | --- | --- | --- | --- | --- | --- | --- | --- |
| Cc1nc2nc(CO)cc(SCC3=C(C(=O)[O-])N4C(=O)C(NC(=O)C(=NOC(C)(C)C(=O)NNC(=O)c5ccc(O)c(O)c5)c5csc(N)n5)[C@H]4SC3)n2n1.[Na+] (stereo partly drawn) [Example 37, sodium 7-{2-[2-amino-1,3-thiazol-4-yl]-2-[1-(3-(3,4-dihydroxybenzoyl)carbazoyl)-1-methylethoxyimino]acetamido}-3-[(5-hydroxymethyl-2-methyl-s-triazolo[1,5-a]pyrimidin-7-yl)thiomethyl]-3-cephem-4-carboxylate] | 3.13 | 6.25 | 1.56 | 1.56 | 0.05 | 0.1 | 0.012 | 1.56 | 0.2 | 0.1 | 0.1 | 0.025 | 0.39 | 0.39 | 6.25 | – | – | – | – | – | – |
| CON=C(C(=O)NC1C(=O)N2C(C(=O)O)=C(CSc3cc(CO)nc4nc(C)nn34)CSC12)c1csc(N)n1 (stereo not drawn) [Example 38] | 0.78 (≈ 1.32 µM) | – | – | – | 0.1 (≈ 0.169 µM) | – | 0.78 (≈ 1.32 µM) | – | > 100 | 100 (≈ 169 µM) | 100 (≈ 169 µM) | 25 (≈ 42.3 µM) | 50 (≈ 84.5 µM) | 25 (≈ 42.3 µM) | 12.5 (≈ 21.1 µM) | 25 (≈ 42.3 µM) | 3.13 (≈ 5.29 µM) | 0.05 (≈ 0.0845 µM) | 6.25 (≈ 10.6 µM) | – | MIC ([3]; Enterobacter cloacae 908RN, Tables 2A, 2B, read-out: MIC): 50 µg/mL (≈ 84.5 µM) |
| CC(C)(ON=C(C(=O)NC1C(=O)N2C(C(=O)[O-])=C(CSc3cc(CO)nc4nc(CO)nn34)CS[C@H]12)c1csc(N)n1)C(=O)NNC(=O)c1ccc(O)c(O)c1.[Na+] (stereo partly drawn) [Example 42, sodium 7-{2-[2-amino-1,3-thiazol-4-yl]-2[1-(3-(3,4-dihydroxybenzoyl)carbazoyl)-1-methylethoxyimino]acetamido}-3-[(2,5-bis(hydroxymethyl)-s-triazolo[1,5-a]pyrimidin-7 yl)thiomethyl]-3-cephem-4-carboxylate] | 3.13 | 6.25 | 3.13 | 1.56 | 0.1 | 0.1 | 0.2 | 3.13 | 0.2 | 0.1 | 0.1 | 0.025 | 0.78 | 0.39 | 6.25 | – | – | – | – | – | – |
| Cc1cc(SCC2=C(C(=O)O)N3C(=O)C(NC(=O)C(=NOC(C)(C)C(=O)NN)c4csc(N)n4)C3SC2)n2nc(CO)nc2n1 (stereo not drawn) [Example 43, 7-[2-(2-amino-1,3-thiazol-4-yl)-2-(1-carbazoyl-1-methylethoxyimino)acetamido]-3-[(2-hydroxymethyl5-methyl-s-triazolo[1,5-a]pyrimidin-7-yl)thiomethyl]-3-cephem-4-carboxylate.dihydrochloride] | 6.25 | – | – | – | 0.39 | – | 3.13 | – | 100 | 25 | 25 | 50 | 50 | 50 | 12.5 | 100 | 25 | 0.2 | 50 | > 100 | – |
| Cc1cc(SCC2=C(C(=O)[O-])N3C(=O)C(NC(=O)C(=NOC(C)(C)C(=O)NN=Cc4ccc(O)c(O)c4)c4csc(N)n4)[C@H]3SC2)n2nc(CO)nc2n1.[Na+] (stereo partly drawn) [Example 44, sodium 7-{2-[2-amino-1,3-thiazol-4-yl]-2-[1-(3-(3,4-dihydroxybenzylidene)carbazoyl)-1-methylethoxyimino]acetamido}-3-[(2-hydroxymethyl-5-methyl-s-triazolo[1,5-a]pyrimidin-7-yl)thiomethyl]-3-cephem-4-carboxylate] | 3.13 | 12.5 | 12.5 | 1.56 | 0.1 | 0.39 | 0.39 | 12.5 | 0.78 | 0.39 | 0.78 | 0.2 | 12.5 | 0.78 | 6.25 | – | – | – | – | – | – |
| COCc1nc2nc(C)cc(SCC3=C(C(=O)O)N4C(=O)C(NC(=O)C(=NOC(C)(C)C(=O)NN)c5csc(N)n5)C4SC3)n2n1 (stereo not drawn) [Example 47] | 6.25 (≈ 9.03 µM) | – | – | – | 0.78 (≈ 1.13 µM) | – | 6.25 (≈ 9.03 µM) | – | > 100 | 50 (≈ 72.3 µM) | 50 (≈ 72.3 µM) | 100 (≈ 145 µM) | 100 (≈ 145 µM) | 100 (≈ 145 µM) | 12.5 (≈ 18.1 µM) | > 100 | 50 (≈ 72.3 µM) | 0.2 (≈ 0.289 µM) | 50 (≈ 72.3 µM) | > 100 | – |
